# What was measured:
# Test in all cases: relative viability (nuclei count vs DMSO), 5 days (fraction); higher = more cells survive
# H3255 = system: H3255
# In short: (§1)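 Relative viability divides the nuclei count in treated wells by that in vehicle wells. Lung cancer cell lines were seeded in 1536-well plates, dosed by pin tool the next day, and fixed and stained after 5 days in one step with final 0.05% Triton X-100, 1% formaldehyde and 1 ug/ml Hoechst. Dosing was a single drug or a fixed anchor-drug dose plus five library-drug doses (not always all listed) in √10 steps, and values are medians of duplicate plates imaged at 4×.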
# CAL-12T = system: CAL-12T
# In short: as §1
# NCI-H2009 = system: NCI-H2009
# In short: as §1
# NCI-H2087 = system: NCI-H2087
# In short: as §1
# LU99A = system: LU99A
# In short: as §1
# UMC-11 = system: UMC-11
# In short: as §1
# SK-LU-1 = system: SK-LU-1
# In short: as §1
# NCI-H520 = system: NCI-H520
# In short: as §1
# SK-MES-1 = system: SK-MES-1
# In short: as §1
# ABC-1 = system: ABC-1
# In short: as §1
# NCI-H1734 = system: NCI-H1734
# In short: as §1
# EKVX = system: EKVX
# In short: as §1
# EMC-BAC-2 = system: EMC-BAC-2
# In short: as §1
# NCI-H2085 = system: NCI-H2085
# In short: as §1
# BEN = system: BEN
# In short: as §1
# LC-2-ad = system: LC-2-ad
# In short: as §1
# NCI-H661 = system: NCI-H661
# In short: as §1
# SW 1573 = system: SW 1573
# In short: as §1
# NCI-H1792 = system: NCI-H1792
# In short: as §1
# NCI-H1993 = system: NCI-H1993
# In short: as §1
# NCI-H838 = system: NCI-H838
# In short: as §1
# NCI-H1355 = system: NCI-H1355
# In short: as §1
compound,measurement,setting,value
Nc1cccc2c1CN(C1CCC(=O)NC1=O)C2=O (stereo not drawn) [Lenalidomide] + C[C@]1(O)C[C@@H](c2nc(-c3ccc4ccc(-c5ccccc5)nc4c3)c3c(N)nccn32)C1 [Linsitinib] (partner 1 µM),relative viability,H3255; first compound 0.253 µM,0.996
same,relative viability,H3255; first compound 0.8 µM,0.957
same,relative viability,H3255; first compound 2.53 µM,1.06
same,relative viability,H3255; first compound 8 µM,0.871
same,relative viability,CAL-12T; first compound 0.253 µM,0.821
same,relative viability,CAL-12T; first compound 0.8 µM,0.83
same,relative viability,CAL-12T; first compound 2.53 µM,1.15
same,relative viability,CAL-12T; first compound 8 µM,0.787
same,relative viability,NCI-H2009; first compound 0.253 µM,1.19
same,relative viability,NCI-H2009; first compound 0.8 µM,1.16
same,relative viability,NCI-H2009; first compound 2.53 µM,1.24
same,relative viability,NCI-H2009; first compound 8 µM,1.25
same,relative viability,NCI-H2087; first compound 0.253 µM,0.98
same,relative viability,NCI-H2087; first compound 0.8 µM,0.919
same,relative viability,NCI-H2087; first compound 2.53 µM,0.915
same,relative viability,NCI-H2087; first compound 8 µM,1.09
same,relative viability,LU99A; first compound 0.253 µM,0.51
same,relative viability,LU99A; first compound 0.8 µM,0.554
same,relative viability,LU99A; first compound 2.53 µM,0.466
same,relative viability,LU99A; first compound 8 µM,0.352
same,relative viability,UMC-11; first compound 0.253 µM,1.03
same,relative viability,UMC-11; first compound 0.8 µM,0.927
same,relative viability,UMC-11; first compound 2.53 µM,1.08
same,relative viability,UMC-11; first compound 8 µM,1.04
same,relative viability,SK-LU-1; first compound 0.253 µM,1.1
same,relative viability,SK-LU-1; first compound 0.8 µM,1.01
same,relative viability,SK-LU-1; first compound 2.53 µM,1.19
same,relative viability,SK-LU-1; first compound 8 µM,1.16
same,relative viability,NCI-H520; first compound 0.253 µM,0.974
same,relative viability,NCI-H520; first compound 0.8 µM,1.15
same,relative viability,NCI-H520; first compound 2.53 µM,1.12
same,relative viability,NCI-H520; first compound 8 µM,0.96
same,relative viability,SK-MES-1; first compound 0.253 µM,1.05
same,relative viability,SK-MES-1; first compound 0.8 µM,1.03
same,relative viability,SK-MES-1; first compound 2.53 µM,1.13
same,relative viability,SK-MES-1; first compound 8 µM,0.979
same,relative viability,ABC-1; first compound 0.253 µM,0.589
same,relative viability,ABC-1; first compound 0.8 µM,0.732
same,relative viability,ABC-1; first compound 2.53 µM,0.71
same,relative viability,ABC-1; first compound 8 µM,0.85
same,relative viability,NCI-H1734; first compound 0.253 µM,0.878
same,relative viability,NCI-H1734; first compound 0.8 µM,1
same,relative viability,NCI-H1734; first compound 2.53 µM,0.934
same,relative viability,NCI-H1734; first compound 8 µM,0.688
same,relative viability,EKVX; first compound 0.253 µM,0.861
same,relative viability,EKVX; first compound 0.8 µM,0.93
same,relative viability,EKVX; first compound 2.53 µM,1.19
same,relative viability,EKVX; first compound 8 µM,0.792
same,relative viability,EMC-BAC-2; first compound 0.253 µM,0.786
same,relative viability,EMC-BAC-2; first compound 0.8 µM,0.833
same,relative viability,EMC-BAC-2; first compound 2.53 µM,0.823
same,relative viability,EMC-BAC-2; first compound 8 µM,0.693
same,relative viability,NCI-H2085; first compound 0.253 µM,0.876
same,relative viability,NCI-H2085; first compound 0.8 µM,0.877
same,relative viability,NCI-H2085; first compound 2.53 µM,1.03
same,relative viability,NCI-H2085; first compound 8 µM,0.933
same,relative viability,BEN; first compound 0.253 µM,1.03
same,relative viability,BEN; first compound 0.8 µM,0.861
same,relative viability,BEN; first compound 2.53 µM,1.09
same,relative viability,BEN; first compound 8 µM,0.781
same,relative viability,LC-2-ad; first compound 0.253 µM,0.837
same,relative viability,LC-2-ad; first compound 0.8 µM,0.926
same,relative viability,LC-2-ad; first compound 2.53 µM,0.862
same,relative viability,LC-2-ad; first compound 8 µM,0.833
same,relative viability,NCI-H661; first compound 0.253 µM,0.451
same,relative viability,NCI-H661; first compound 0.8 µM,0.526
same,relative viability,NCI-H661; first compound 2.53 µM,0.59
same,relative viability,NCI-H661; first compound 8 µM,0.539
same,relative viability,SW 1573; first compound 0.253 µM,0.772
same,relative viability,SW 1573; first compound 0.8 µM,0.866
same,relative viability,SW 1573; first compound 2.53 µM,0.792
same,relative viability,SW 1573; first compound 8 µM,0.791
same,relative viability,NCI-H1792; first compound 0.253 µM,0.53
same,relative viability,NCI-H1792; first compound 0.8 µM,0.457
same,relative viability,NCI-H1792; first compound 2.53 µM,0.509
same,relative viability,NCI-H1792; first compound 8 µM,0.402
same,relative viability,NCI-H1993; first compound 0.253 µM,0.708
same,relative viability,NCI-H1993; first compound 0.8 µM,0.706
same,relative viability,NCI-H1993; first compound 2.53 µM,0.73
same,relative viability,NCI-H1993; first compound 8 µM,0.708
same,relative viability,NCI-H838; first compound 0.253 µM,1.02
same,relative viability,NCI-H838; first compound 0.8 µM,0.98
same,relative viability,NCI-H838; first compound 2.53 µM,1.13
same,relative viability,NCI-H838; first compound 8 µM,0.968
same,relative viability,NCI-H1355; first compound 0.253 µM,0.827
same,relative viability,NCI-H1355; first compound 0.8 µM,0.748
same,relative viability,NCI-H1355; first compound 2.53 µM,0.864
same,relative viability,NCI-H1355; first compound 8 µM,0.53

# — the supplement of paper PMC10307832
